What all share (type): cell-based, human
In experiment [1] the test system is PC-3 cells. Briefly: BrdU cell proliferation assay, PC-3. The following applies: PC-3, BrdU. As to the method:
The anti-proliferative effects of compound on treated cells, was measured using the BrdU cell proliferation assay kit (Roche Applied Science Diagnostics, Indianapolis, IN, USA) according to the manufacturer’s protocol. The assay was based on incorporation of BrdU during DNA synthesis in proliferating cells. Cells were plated at a concentration of 10^4 cells/mL in a 96-well microtiter plate and incubated overnight. The cells were treated with compounds and curcumin (concentrations ranging from 1.56 µM–100 µM) as positive control for 24, 48 and 72 h respectively. Then, BrdU labeling solution (5 µL, diluted by 1/100 in culture media) was added to each well and incubated for 2 h at 37 °C. The media was replaced with fix/denaturing solution (100 µL) and incubated for 30 min at room temperature. Then, the fix/denaturing solution was removed by tapping off and followed by addition of 50 µL anti-BrdU antibody (50 µL, diluted by 1/100 in dilution buffer) to each well and further incubated for another 90 min at room temperature. Next, the cells were washed 3 times with wash buffer and substrate solution (50 µL) was added to each well. The plate was left for 10 min at room temperature in the dark and the absorbance was measured at a wavelength of 370 nm with a reference wavelength of 492 nm using a micro-plate ELISA reader (Bio-Rad). The percentage of BrdU incorporation was determined based on the ratio of absorbance of sample treated-cells to absorbance of control (untreated cells/DMSO only) multiplied by 100.

For experiment [2], the system named is caspase-3 activity in PC-3 cells. Briefly: Caspase-3 colorimetric activity assay, PC-3. As to the method: Caspase-3 activity was determined using the caspase-3 colorimetric assay kit (Sigma-Aldrich) according to manufacturer’s protocol. The assay is based on spectrophotometric detection of p-nitroanilide (pNA) a colored molecule, after its cleavage from the labeled substrate DEVD-pNA by the activity of caspase-3 enzyme. PC-3 and DU 145 cells were treated with MS17 at different concentrations (EC50, 2 × EC50, 3 × EC50) at various time points, 6, 12, 24, 48 and 72 h as appropriate. Following treatment, cells were washed with PBS and suspended with lysis buffer (50 mM HEPES, pH 7.4, 5 mM CHAPS, 5 mM DTT) for 30 min on ice at the concentration of 10^7 cells per 100 µL buffer. Cells were then spun for 30 min at 16,000× g, 4 °C. Protein lysate concentrations were measured based on the Bradford assay method using the Cayman Chemical protein determination kit (Cayman Chemical Company, Ann Arbor, MI, USA) based on the manufacturer’s protocol. Assay was performed on a 96-well micro-titer plate by adding equal amount of protein lysate (~100 µg) into wells containing the assay buffer (20 mM HEPES pH 7.4, 0.1% CHAPS, 5 mM DTT, 2 mM EDTA). Reaction was started by the addition of 10 µL of substrate Ac-DEVD-pNA (2 mM). The effect of Ac-DEVD-CHO, a caspase-3 inhibitor was also studied simultaneously on caspase-3 activity. Ten microliter of the inhibitor (200 µM) was added into the wells containing the protein lysate, assay buffer and the substrate. Caspase-3 activity was measured upon the release of pNA molecule, a pale yellow colored product using the micro-plate ELISA reader (Bio-Rad) at the wavelength of 405 nm. Relative caspase-3 activity was expressed as absorbance of enzyme activity compared with the control (untreated cells/DMSO only) based on the equation below: Relative caspase 3 activity= Absorbance of treated cells /Absorbance of control

Experiment [3] has as its system DU 145 cells. The experiment is described as follows: Free nucleosome detection (Cell Death Detection ELISA), DU 145. Conditions: DU 145, 8.4 µM compared with 4.2 and 12.6 µM, all time points. How it is done: To confirm the presence of histone-bound DNA fragments (free nucleosomes) in the prostate cancer cells after the treatment of MS17, Cell Death Detection ELISA^PLUS kit (Roche Diagnostics) was used according to the manufacturer’s protocol. Cells were plated on a bottom flat tissue culture plates at a concentration of 10^5 cells per well and incubated for 24 h to allow the cells to adhere. After overnight incubation, MS17 at various concentrations (EC50, 2 × EC50, 3 × EC50) were added to a final volume of 100 µL per well and further incubated for 24, 48 and 72 h. The plate was centrifuged at 600 rpm at 4 °C for 10 min. The cell pellet containing the apoptotic bodies was resuspended in lysis buffer and incubated for 30 min at room temperature. […] The amount of nucleosomes retained by the POD in the immunocomplex, corresponding to the extent of apoptosis and necrosis, was determined with 2,2'-azinobis-3-ethyl-benzothiazoline-6-sulfonic acid (ABTS) as substrate using a micro-plate ELISA reader at a wavelength of 405/490 nm. The amount of enrichment of mono- and oligonucleosomes released into the cytoplasm was calculated using the following formula: Enrichment factor= Absorbance of sample/Absorbance of control
For orientation: In an ELISA, binding on a coated surface is turned into a signal by an enzyme label.

“Also recorded” adds a separate entry of the source.

`O=C(C=Cc1ccccc1O)C=Cc1ccccc1O` [MS17, 1,5-bis(2-hydroxyphenyl)-1,4-pentadiene-3-one]: the “concentration from which anti-proliferative activity is significant” value in experiment [1] (24 h) is reported as 6.3 µM; in experiment [1] (48 h), 12.5 µM; in experiment [1] (72 h) it was 12.5 µM. In addition, the “relative caspase-3 activity (treated vs untreated)” value in experiment [2] (PC-3, 4.5, 9.0 and 13.5 µM, 48 h) is given as “increased significantly; also recorded: significant increase of caspase-3 activity”. For the same molecule, in experiment [2] (PC-3, 12, 24 and 72 h), the “relative caspase-3 activity, differences between concentrations” value was “no significant differences of caspase-3 activity”. The “nucleosomal fragments (enrichment factor)” value in experiment [3] is recorded as “significant increase in nucleosomal fragments”.
